What is called IC50 is the concentration at which inhibition is half-maximal. What is called EC50 is the concentration needed to bring the measured effect to its halfway point.

In paper PMC2653189 (PLoS ONE, 2009) one finds IC50 and EC50 data, which are given here for 1 molecule.

In assay [1] the test system is IL-6-mediated Stat3 nuclear translocation (GFP-Stat3α). Briefly: HTFM nuclear translocation assay in MEF/GFP-Stat3α cells. It counts as cell-based, murine. To be noted: Mus musculus, compound 1 hour, then IL-6 200 ng/ml and IL-6sR 250 ng/ml 30 min, read-out: HTFM IC50, inhibition of IL-6-mediated Stat3 nuclear translocation. The procedure: Confocal and high-throughput fluorescence microscopy (HTFM) of MEF/GFP-Stat3α cells were performed as described. Briefly, for confocal fluorescence microscopy, cells were grown in 6-well plates containing a cover slip. For HTFM, cells were seeded into 96-well CC3 plates at a density of 5,000 cells/well using an automated plating system. Cells were cultured under standard conditions until 85–90% confluent. Cells were pre-treated with compound for 1 hour at 37°C then stimulated with IL-6 (200 ng/ml) and IL-6sR (250 ng/ml) for 30 minutes to provide optimal Stat3 activation and nuclear translocation in these cells, as described. Cells were fixed with 4% formaldehyde in PEM Buffer (80 mM Potassium PIPES, pH 6.8, 5 mM EGTA pH 7.0, 2 mM MgCl2) for 30 minutes at 4°C, quenched in 1 mg/ml of NaBH4 (Sigma) in PEM buffer and counterstained for 1 min in 4,6-diamidino-2-phenylindole (DAPI; Sigma; 1 mg/ml) in PEM buffer. Cover slips were examined by confocal fluorescent microscopy. Plates were analyzed by automated HTFM using the Cell Lab IC Image Cytometer (IC100) platform and Cytoshop Version 2.1 analysis software (Beckman Coulter). Nuclear translocation is quantified by using the fraction localized in the nucleus (FLIN) measurement. FLIN values were normalized by subtracting the FLIN for unstimulated cells then dividing this difference by the maximum difference (delta, Δ) in FLIN (FLIN in cells stimulated with IL-6/sIL-6R in the absence of compound minus FLIN of unstimulated cells). This ratio was multiplied by 100 to obtain the percentage of maximum difference in FLIN and was plotted, where indicated, as a function of the log compound concentration. The best-fitting curve and IC50 value were determined using 4-Parameter Logistic Model/Dose Response/XLfit 4.2, IDBS software.
Figure 4 Inhibition of cytoplasmic-to-nuclear translocation of Stat3 assessed by confocal and high-throughput fluorescence microscopy (HTFM). […] Coverslips were examined by confocal fluorescent microscopy using filters to detect GFP (column one), DAPI (column two) or both (merge; column three). In panel B, MEF-GFP-Stat3 cells were grown in 96-well plates with optical glass bottoms and pre-treated with the indicated compound at the indicated concentrations in quadruplicate for 1 hour then stimulated with IL-6 (200 ng/ml) and IL-6sR (250 ng/ml) for 30 minutes. Cells were fixed and the plates were examined by high-throughput microscopy to determine the fluorescence intensity in the nucleus (FLIN). The percent of maximum change (delta, Δ) in FLIN was calculated as described in the Methods and plotted as a function of the log of the compound concentration. […] Best-fit curves were determined using 4-Parameter Logistic Model/Dose Response/XLfit 4.2, IDBS software and were used to calculate the IC50 values (Table 2).

For assay [2], the system named is breast cancer cell lines with constitutive Stat3 activity—MDA-MB-468, MDA-MB-231 and MDA-MB-435. Briefly: Apoptosis assay, summary over the cell lines with constitutive Stat3 activity. The class given is cell-based. Conditions: Homo sapiens, 24 hr, read-out: EC50 apoptosis induction, range over three cell lines. The procedure:
(§1) Human breast carcinoma cell lines MDA-MB-468, MDA-MB-231, MBA-MD-435 and MCF7 were kindly provided by Dr. Powel H. Brown (Breast Cancer Center, Baylor College of Medicine). Breast cancer cell line, MDA-MB-453 was kindly provided by Dr. Shou Jiang (Breast Cancer Center, Baylor College of Medicine). All cell lines were grown in DMEM medium supplemented with 10% fetal bovine serum (FBS), 25,000 units penicillin G, 25,000 µg streptomycin, and 131.4 mg L-Glutamine and cultured in the incubator under the condition of 95% air, 5% CO2 at 37°C [33]. Cells were seeded at 2,500 cells/cm^2 into 12-well plates. At 80% confluency, cells were washed with PBS and supplemented with fresh medium containing compound or the topoisomerase I-inhibitor, camptothecin, at 0, 0.1, 0.3, 1, 3, 10, 30, 100, 300 µM. At 24 hours, treatment was terminated by removing the medium from each well. Cells were lysed with cell lysis buffer (600 µl for 30 minutes at 25°C). Cell lysate (200 µl) was centrifuged at 200 g for 10 minutes and 20 µl of each supernatant was assayed for nucleosomes using the Cell Death Detection ELISA (Roche Applied Science) as described by the manufacturer. The percent maximum nucleosome level was calculated by dividing the nucleosome level by the maximum nucleosome level achieved in the assay and multiplying by 100.
(§2) MDA-MB-468 (panel A), MDA-MB-231 (panel B), MDA-MB-435 (panel C), MCF7 (panel D) and MDA-MB-453 (panel E) were seeded in 12-well plates, grown overnight then treated with the indicated compound for 24 hr. Cells were centrifuged and the supernatants assayed for nucleosome levels by ELISA. The percent maximum nucleosome level was calculated (nucleosome level ÷ maximum nucleosome level achieved in the assay ×100) and plotted as a function of the log compound concentration. The best-fitting curve was determined using 4-ParameterLogistic Model/Dose Response One Site/XLfit 4.2, IDBS software and was used to determine the EC50 value (Table 3).

Assay [3] relates to cell lines MDA-MB-453 and MCF7. In words: Apoptosis assay, summary over the cell lines without constitutive Stat3 activity. It counts as cell-based. To be noted: Homo sapiens, concentrations up to 300 µM, read-out: EC50 apoptosis induction, MDA-MB-453 and MCF7. The procedure: as §1, §2

For `O=C(O)c1ccc(C=CC(=O)c2ccc3c(c2)OCCO3)cc1` [Cpd3, 4-[3-(2,3-dihydro-1,4-benzodioxin-6-yl)-3-oxo-1-propen-1-yl]benzoic acid], in assay [1], the IC50 is 131 µM. In addition, the EC50 is 2.3 to 26.9 µM in assay [2] and above 300 µM in assay [3].
